The nature of data set [1]: Cytotoxicity against human MOLT3 cells by XTT assay. In kind it is functional, cell-based. The following applies: MOLT-3.
Data set [2] in a line: Selectivity index, ratio of IC50 for human MRC5 cells to IC50 for chloroquine/mefloquine-resistant Plasmodium falciparum SRIV35. In kind it is toxicity, cell-based. The following applies: read-out: Ratio IC50.
Data set [3] can be described thus: Selectivity index, ratio of IC50 for human MRC5 cells to IC50 for chloroquine-resistant Plasmodium falciparum K1. In kind it is toxicity, cell-based. The following applies: read-out: Ratio IC50.
Data set [4] can be described thus: Cytotoxicity against human HuCCa1 cells by MTT assay. Type of data set: functional, cell-based. The following applies: HuCC-A1. (In general: Formazan colour is commonly taken as a measure of viable cells.)
The test system of data set [5] is Plasmodium falciparum. Put plainly: microbe, parasite or virus in culture. The following applies: 3D7.
Description: Antiplasmodial activity against chloroquine-sensitive Plasmodium falciparum 3D7
Data set [6] relates to MRC5. Put plainly: Cytotoxicity against human MRC5 cells by MTT assay. In kind it is cell-based.
Data set [7] can be described thus: Selectivity index, ratio of IC50 for human MRC5 cells to IC50 for […]. Type of data set: toxicity, cell-based. The note with it: read-out: Ratio IC50.
Data set [8] relates to Plasmodium falciparum. Put plainly: microbe, parasite or virus in culture. The note with it: SKF58.
The subject of data set [9] is A549. As to the kind of experiment: Cytotoxicity against human A549 cells by MTT assay. In kind it is functional, cell-based.
Data set [10] concerns Plasmodium falciparum. Put plainly: microbe, parasite or virus in culture. The note with it: K1.
Description: Antiplasmodial activity against chloroquine-resistant Plasmodium falciparum K1
A short description of data set [11]: Selectivity index, ratio of IC50 for human MRC5 cells to IC50 for human HuCCa1 cells. In kind it is functional.
The subject of data set [12] is HepG2. Put plainly: Cytotoxicity against human HepG2 cells by MTT assay. Type of data set: functional, cell-based.
The subject of data set [13] is Plasmodium falciparum. Put plainly: microbe, parasite or virus in culture. The following applies: SRIV35.
Data set [14] is described as follows: Selectivity index, ratio of IC50 for human MRC5 cells to IC50 for chloroquine/mefloquine-resistant Plasmodium falciparum SKF58. In kind it is toxicity, cell-based. The following applies: read-out: Ratio IC50.

A value given as a limit tells only on which side of the number the result lay.

Usually IC50 stands for the concentration that inhibits the measured activity by half.

As to `Cn1cc2c3cc(Br)ccc3nc-2c2cc(F)ccc21`, the IC50 in data set [1] came to 880 nM; in data set [4], 15 µM; in data set [5] it was 119 nM; in [6], 122 µM; in data set [8], 132 nM; in [9] it was 13.2 µM. The results for the IC50 in data set [10], in [12] and in [13] were 188 nM, 3650 nM and 211 nM, respectively. Also, the selectivity ratio in data set [2] stood at 577; in data set [3], 650; in data set [7], 1020; in data set [14], 921. In addition, the “Ratio IC50” value in data set [11] turned out to be 8.14.
As to `Cn1cc2c3ccccc3nc-2c2cc(Cl)ccc21`, the IC50 in data set [1] was found to be 520 nM; in data set [4], 6.45 µM; in [5], 221 nM; in [6], 10.4 µM; in data set [8] it was 228 nM; in data set [9], 1.5 µM. In addition, the IC50 in [10] amounted to 321 nM; in data set [12] it was 640 nM; in data set [13], 217 nM. Besides, the selectivity ratio amounted to 48 in data set [2], 32.5 in [3], 47.1 in data set [7] and 45.7 in [14]. For the same compound, the “Ratio IC50” value in data set [11] came to 1.62.
On to `Cn1cc2c3cc(F)ccc3nc-2c2cc(Cl)ccc21`, for which the IC50 turned out to be 740 nM in data set [1]; 9.48 µM in [4]; 166 nM in data set [5]; 4.04 µM in data set [6]; 177 nM in data set [8]; 7.9 µM in data set [9]. For the same compound, the IC50 in [10] worked out at 288 nM; in [12], 810 nM; in data set [13], 176 nM. For the same compound, the selectivity ratio in data set [2] was determined as 22.9; in [3], 14.1; in [7], 24.4; in data set [14] it was 22.8. For the same compound, in data set [11], the “Ratio IC50” value was 0.43.
Take `Cn1cc2c3cc(Cl)ccc3nc-2c2cc(Cl)ccc21`: the IC50 in [1] worked out at 930 nM; in data set [4] it was 13.2 µM; in data set [5], 172 nM; in data set [6], 25.2 µM; in [8] it was 130 nM; in [9], 30.2 µM. The IC50 in data set [10] is 228 nM; in [12], 7900 nM; in [13] it was 156 nM. In addition, the selectivity ratio was 162 in [2], 110 in data set [3], 146 in [7] and 194 in data set [14]. Further, the “Ratio IC50” value in data set [11] was found to be 1.9.
On to `Cc1cc(Br)cc2c3cn(C)c4ccc(Cl)cc4c-3nc12`, for which the IC50 in data set [1] came to 1170 nM; in [4] it was 6.15 µM; in data set [5] it was 95 nM; in data set [6], 5.43 µM; in data set [8], 92.6 nM; in data set [9], 2.34 µM. The figures for the IC50 in [10], in [12] and in [13] were 145 nM, 1390 nM and 86.7 nM, respectively. Moreover, the selectivity ratio came out at 63.2 in data set [2], 37.8 in [3], 57.7 in data set [7] and 59.2 in [14]. Moreover, in data set [11], the “Ratio IC50” value is listed as 0.89.
For `COc1ccc2nc3c4cc(Cl)ccc4n(C)cc-3c2c1`, the IC50 came to 2900 nM in [1]; 10.4 µM in data set [4]; 211 nM in [5]; 3.1 µM in data set [6]; 207 nM in [8]; 6.98 µM in data set [9]. The IC50 in [10] came to 380 nM; in [12] it was 2190 nM; in data set [13] it was 209 nM. Further, the selectivity ratio in [2] was 13.7; in data set [3], 7.52; in data set [7] it was 13.5; in data set [14] it was 13.8. For the same compound, in [11], the “Ratio IC50” value amounted to 0.28.
Turning to `Cn1cc2c3ccc4ccccc4c3nc-2c2cc(Cl)ccc21`, the IC50 stood at 1550 nM in data set [1]; 1.55 µM in data set [4]; 136 nM in data set [5]; 2.62 µM in data set [6]; 134 nM in data set [8]; 1.2 µM in data set [9]. Further, the IC50 in data set [10] is 190 nM; in [12], 760 nM; in data set [13], 126 nM. The selectivity ratio in data set [2] was determined as 36.3; in data set [3], 24.1; in data set [7], 33.6; in [14] it was 34.3. In data set [11], the “Ratio IC50” value came to 2.96.
Regarding `Cn1cc2c3ccccc3nc-2c2cccc(Cl)c21`, the IC50 in data set [1] was 1270 nM; in [4], 21 µM; in [5], greater than 2000 nM; in [6], 12.4 µM; in data set [8] it was greater than 2000 nM; in [9], 8.59 µM. Besides, the IC50 in data set [10] is greater than 2000 nM; in [12], 2620 nM; in [13], greater than 2000 nM. In addition, the “Ratio IC50” value in data set [11] was found to be 0.59.
On to `Cn1cc2c3cc(Br)ccc3nc-2c2cccc(Cl)c21`, for which the IC50 was 780 nM in data set [1]; 4.92 µM in data set [4]; greater than 2000 nM in [5]; 3.15 µM in [6]; greater than 2000 nM in [8]; 5.5 µM in [9]. Also, the IC50 in data set [10] was greater than 2000 nM; in data set [12], 2550 nM; in data set [13] it was greater than 2000 nM. Further, the “Ratio IC50” value in data set [11] came to 0.64.
As to `Cn1cc2c3cc(Br)ccc3nc-2c2cc(F)cc(Cl)c21`, the IC50 in data set [4] was 8 µM; in data set [5], greater than 2000 nM; in data set [6] it was 108 µM; in data set [8], greater than 2000 nM; in [9], 35.9 µM; in data set [10] it was greater than 2000 nM. For the same compound, the figures for the IC50 in data set [12] and in data set [13] were 3470 nM and greater than 2000 nM, respectively. Further, the “Ratio IC50” value in data set [11] is on record as 13.5.
As to `C[C@H]1[C@H](OC(=O)CCC(=O)O)O[C@@H]2O[C@@]3(C)CC[C@H]4[C@H](C)CC[C@@H]1[C@@]24OO3` [ARTESUNATE], the IC50 in [5] came to 4.2 nM; in [8], 10 nM; in data set [10], 3.5 nM; in data set [13] it was 4.1 nM.
In the case of `COc1cc([C@@H]2c3cc4c(cc3[C@@H](O[C@@H]3O[C@@H]5CO[C@@H](C)O[C@H]5[C@H](O)[C@H]3O)[C@H]3COC(=O)[C@H]23)OCO4)cc(OC)c1O` [ETOPOSIDE], the IC50 in data set [1] came to 110 nM; in data set [12] it was 40500 nM.
With `Cn1cc2c3ccccc3nc-2c2ccccc21` [ISOCRYPTOLEPINE], the 50% inhibitory concentration (IC50) in data set [1] was 730 nM; in data set [4], 1.81 µM; in [5] it was 585 nM; in data set [6] it was 8.35 µM; in data set [8] it was 410 nM; in [9], 1.21 µM. Moreover, the IC50 in [12] was determined as 730 nM; in data set [13] it was 463 nM. Moreover, the selectivity ratio turned out to be 18 in data set [2], 10.7 in data set [3], 14.3 in data set [7] and 20.4 in data set [14]. The “Ratio IC50” value in data set [11] came to 4.62.
Regarding `OC(c1cc(C(F)(F)F)nc2c(C(F)(F)F)cccc12)C1CCCCN1` (stereo unspecified) [MEFLOQUINE], in data set [13], inhibition was half-maximal at 65 nM (IC50).
Turning to `C=C[C@H]1CN2CC[C@H]1C[C@H]2[C@H](O)c1ccnc2ccc(OC)cc12` [QUININE], the IC50 is 80 nM in [5], 199 nM in data set [8], 113 nM in data set [10] and 431 nM in data set [13].

The record behind these values is ChEMBL document CHEMBL3414562, “Synthesis of isocryptolepine analogues and their structure-activity relationship studies as antiplasmodial and antiproliferative agents” (Eur J Med Chem, 2015).
